Source: patent publication US11627753B2, “Solubilized steviol glycoside compositions” (JAMES AND CAROL MAY FAMILY, LLLP, priority 2014, dated 2023)

Experiment: Precipitation from aqueous solution in the absence of the emulsifier
Assay type: physicochemical
Details: without natural emulsifier
Source text: In accordance with various exemplary embodiments of the present technology, the sweetener composition may comprise a natural emulsifier. The natural emulsifier may function to disperse the stevia glycosides through an aqueous solution such as water. The dissolved concentration of the stevia glycosides in the aqueous solution may be higher in the presence of the natural emulsifier than in the absence of the natural emulsifier. For example, rebaudioside A present in amounts of 11% by weight or greater may precipitate from an aqueous solution. In various embodiments of the present technology, the natural emulsifier may allow rebaudioside A to be present in aqueous solution in amounts of up to about 20% by weight without precipitation. In some embodiments, adding the natural emulsifier to an aqueous (ie., water-based) solution of stevia glycosides may stabilize the solubility of the sweetener composition including reducing or eliminating the precipitation of solids from the solution by binding any of the components to prevent separation of the finished sweetener composition.
In various embodiments, the solubility of the aqueous sweetener composition may remain stable for more than five days at room temperature. In some embodiments, the solubility of the aqueous sweetener composition may remain a stable for at least six months at room temperature. […]

C=C1C[C@@]23CC[C@H]4[C@@](C)(CCC[C@@]4(C)C(=O)O[C@@H]4O[C@H](CO)[C@@H](O)[C@H](O)[C@H]4O)[C@@H]2CC[C@]1(O[C@@H]1O[C@H](CO)[C@@H](O)[C@H](O[C@@H]2O[C@H](CO)[C@@H](O)[C@H](O)[C@H]2O)[C@H]1O[C@@H]1O[C@H](CO)[C@@H](O)[C@H](O)[C@H]1O)C3 [rebaudioside A]
amount at which it may precipitate from an aqueous solution: ≥ 11 % by weight
